What was measured:
[1] = molecular target: cAMP-dependent protein kinase catalytic subunit alpha/beta/gamma (Homo sapiens, UniProt P17612+P22694+P22612); experiment: Inhibitory activity against protein kinase A.
[2] = molecular target: Protein kinase C (PKC); experiment: Inhibitory activity against protein kinase C.

Compound | IC50 [1] [µM] | IC50 [2] [µM]
Clc1cc2c3cc[nH]cc-3nc2c(Cl)c1OCC1CC1 [6,8-Dichloro-7-cyclopropylmethoxy-9H-beta-carboline] | > 25 | > 25
O=[N+]([O-])c1cc(Cl)cc2c1[nH]c1cnccc12 [6-Chloro-8-nitro-9H-beta-carboline] | > 25 | > 25
COc1ccccc1C(=O)Nc1cc(Cl)cc2c3cc[nH]cc-3nc12 [N-(6-Chloro-9H-beta-carbolin-8-yl)-2-methoxy-benzamide] | > 25 | > 25
COc1cccc(C(=O)Nc2cc(Cl)cc3c4cc[nH]cc-4nc23)c1 [N-(6-Chloro-9H-beta-carbolin-8-yl)-3-methoxy-benzamide] | > 25 | > 25
COc1ccc(C(=O)Nc2cc(Cl)cc3c4cc[nH]cc-4nc23)cc1 [N-(6-Chloro-9H-beta-carbolin-8-yl)-4-methoxy-benzamide] | > 25 | > 25
